# Square brackets hold non-standard residues; d marks the D form. Peptide text beside a SMILES is read from it.
# Columns and labels:
# [1] = test system: NF-κB and p38 MAPK in MCs; conditions: IgE-independent stimulation; cited from earlier work
# Excerpt: MCs play a pivotal role in the late-phase reaction following early-phase activation triggered by Ag stimulation. During the late-phase response, MCs produce and secrete a range of cytokines and chemokines, which further intensify the inflammatory cascade initiated in the early response, leading to the recruitment and activation of various immune cells. The late-phase response of MC activation is instrumental in sustaining and exacerbating allergic symptoms, such as bronchoconstriction and edema. Suppressing MC-mediated late-phase responses, therefore, can help prevent the ...
# BMMCs [2] = assay: Thapsigargin-induced degranulation of BMMCs; assay type: cell-based, mouse; conditions: BMMCs without IgE sensitization, 30 min pre-incubation, 300 nM thapsigargin 15 min; two independent experiments
# Procedure: (§1) Figure 5 Pro10-1D suppresses the activity of Lyn and Fyn kinases in vitro. (A) BMMCs (3.0 × 10^5 cells/well) were pre-incubated with Pro10-1D or PP2 for 30 min and then stimulated with 1 μM ionomycin or 300 nM thapsigargin for 15 min. (B,C) KinaseProfiler radiometric protein kinase assays were performed with Lyn and Fyn kinase. The protocols used for the kinase assay are detailed in the Section 4 “Materials and Methods”. (A–C) The data are presented as the mean ± SEM from two independent experiments. Statistical significance is indicated by an asterisk; ** p < 0.01.
# (§2) RBL-2H3 cells (2.0 × 10^5 cells/well) were sensitized overnight with 20 ng/mL DNP-specific IgE in the culture medium. BMMCs (3.0 × 10^5 cells/well) were sensitized with 100 ng/mL DNP-specific IgE for 4 h in the culture medium. […] The reaction was stopped by the addition of 250 μL of a 0.1 M carbonate buffer, and absorbance was measured at 405 nm. The degranulation values were calculated as the ratio of β-hexosaminidase activity secreted into the supernatant to the total β-hexosaminidase activity from both the supernatant and cell extract.
# BMMCs [3] = assay: Ionomycin-induced degranulation of BMMCs; assay type: cell-based, mouse; conditions: BMMCs without IgE sensitization, 30 min pre-incubation, 1 μM ionomycin 15 min; two independent experiments
# Procedure: as §1, §2
# TLR ligands = conditions: cited from earlier work
# Excerpt: (§3) AMPs are recognized for their antibacterial activities as well as their immunomodulatory activities. The mechanism for their immunomodulatory activity includes the regulation of inflammatory or anti-inflammatory cytokines and the induction of chemoattractants. […] LL-37, produced by neutrophils, neutralize ...
# [4] = test system: T cells, B cells, and pDC cells; conditions: cited from earlier work
# Excerpt: as §3
# E. coli-induced sepsis = conditions: cited from earlier work
# Excerpt: as §3
# [5] = test system: TLR4-NFκB signaling pathway, LPS-TLR4/MD-2; conditions: competitive interference with the LPS-TLR4/MD-2 interaction; cited from earlier work
# Excerpt: as §3
# [6] = test system: bone marrow-derived mast cells (BMMC cells); assay: Antigen-induced MC degranulation, β-hexosaminidase assay, BMMCs; assay type: cell-based, mouse; conditions: BMMCs (3.0 × 10^5 cells/well), DNP-specific IgE 100 ng/mL 4 h, Pro10-1D 30 min, then DNP-HSA 50 ng/mL 15 min, 37 °C, Tyrode buffer pH 7.4, absorbance 405 nm, three independent experiments in triplicate, read-out: IC50, inhibition of antigen-induced degranulation
# Procedure: (§4) Figure 1 Pro10-1D inhibits IgE–Ag-induced degranulation in MCs. (A) RBL-2H3 cells and BMMCs were first sensitized with DNP-specific IgE and then treated with Pro10-1D or PP2 for 30 min, followed by the stimulation with DNP-HSA for 15 min. (B) IgE-sensitized RBL-2H3 cells were incubated with or without Pro10-1D for 30 min and then washed three times, followed by the stimulation with the antigen for 15 min. (C) The effects of Pro10-1D on cell viability were evaluated by incubating both RBL-2H3 cells and BMMCs with Pro10-1D for 4 h and measuring the absorbance at 450 nm using the CCK-8 kit. (A,B) The extent of degranulation from the MCs was determined by measuring the ratio of β-hexosaminidase activity released outside the cells to the total β-hexosaminidase activity. The data are presented as the mean ± SEM from three independent experiments, each performed in triplicate. […]
# (§5) RBL-2H3 cells were obtained from the American Type Culture Collection (Manassas, VA, USA) and cultured in a complete minimal essential medium (MEM) supplemented with L-glutamine […], streptomycin (100 μg/mL), and 15% fetal bovine serum at 37 °C in a CO2-enriched environment. […] After 4 to 5 weeks of culture, the purity of BMMCs was assessed using flow cytometric analysis, focusing on FcεRIα and c-Kit expression as markers of mast cell maturation. […]
# Fyn = target: T1, Fyn (Homo sapiens, UniProt P06241); assay: KinaseProfiler radiometric kinase assay, Fyn; assay type: biochemical; conditions: Km concentration for ATP, [γ-33P]-ATP, 250 µM Cdc2 peptide, Tris pH 7.5, 40 min, room temperature, two independent experiments
# T1 construct: purchased Eurofins (KinaseProfiler service, Celle-Lévescault, France)
# Procedure: as §1
# (§6) A radiometric Lyn, Fyn kinase assay was conducted at Eurofins (Celle-Lévescault, France) using KinaseProfiler^TM. The assays were carried out at the Km concentration for ATP in dose response for each kinase. Briefly, the Lyn (mouse) assay was incubated using a mixture of 50 mM Tris pH 7.5, 0.1 mM EGTA, 0.1 mM Na3VO4, 0.1% β-Mercaptoethanol, 0.1 mg/mL Poly (Glu, Tyr) 4:1, 10 mM Magnesium acetate, and [γ^33P]-ATP. The Fyn (human) assay was incubated with a mixture of 50 mM Tris pH 7.5, 0.1 mM EGTA, 0.1 mM Na3VO4, 250 µM KVEKIGEGTYGVVYK (Cdc2 peptide), 10 mM Magnesium acetate, and [γ^33P]-ATP. The activity of Lyn and Fyn was initiated by the addition of the Mg/ATP mix, and the reactions were incubated for 40 min at room temperature. The reaction was halted by adding 0.5% phosphoric acid. […]
# Lyn = target: T2, Lyn (Mus musculus, UniProt P25911); assay: KinaseProfiler radiometric kinase assay, Lyn; assay type: biochemical; conditions: Km concentration for ATP, [γ-33P]-ATP, Poly (Glu, Tyr) 4:1, 0.1 mg/mL, Tris pH 7.5, 40 min, room temperature, two independent experiments
# T2 construct: purchased Eurofins (KinaseProfiler service, Celle-Lévescault, France)
# Procedure: as §1, §6
# BMMCs [7] = assay: Cell viability (CCK-8), BMMCs; assay type: cell-based, mouse; conditions: 4 h, CCK-8, absorbance 450 nm, up to highest experimental concentration
# Procedure: (§7) Figure 1 Pro10-1D inhibits IgE–Ag-induced degranulation in MCs. (A) RBL-2H3 cells and BMMCs were first sensitized with DNP-specific IgE and then treated with Pro10-1D or PP2 for 30 min, followed by the stimulation with DNP-HSA for 15 min. (B) IgE-sensitized RBL-2H3 cells were incubated with or without Pro10-1D for 30 min and then washed three times, followed by the stimulation with the antigen for 15 min. (C) The effects of Pro10-1D on cell viability were evaluated by incubating both RBL-2H3 cells and BMMCs with Pro10-1D for 4 h and measuring the absorbance at 450 nm using the CCK-8 kit. (A,B) The extent of degranulation from the MCs was determined by measuring the ratio of β-hexosaminidase activity released outside the cells to the total β-hexosaminidase activity. The data are presented as the mean ± SEM from three independent experiments, each performed in triplicate. Statistical significance is indicated by an asterisk; * p < 0.05, ** p < 0.01. PP2 is a general Src family kinase inhibitor.
# (§8) RBL-2H3 cells (2.0 × 10^4 cells/well) were seeded in 96-well plates and incubated for 12 h, after which they were treated with Pro10-1D for 4 h. […] Cell viability was assessed using the Cell Counting Kit-8 (CCK-8) (Dojindo Laboratories, Kumamoto, Japan), following the manufacturer’s protocol. Absorbance was measured at 450 nm to determine cell viability.
# [8] = test system: rat basophilic leukemia (RBL)-2H3 cells; assay: Antigen-induced MC degranulation, β-hexosaminidase assay, RBL-2H3; assay type: cell-based; conditions: RBL-2H3 (2.0 × 10^5 cells/well), DNP-specific IgE 20 ng/mL overnight, Pro10-1D 30 min, then DNP-HSA 25 ng/mL 15 min, 37 °C, Siraganian buffer pH 7.2, absorbance 405 nm, three independent experiments in triplicate, read-out: IC50, inhibition of antigen-induced degranulation
# Procedure: as §4, §5
# [9] = test system: mouse macrophage RAW264.7 cells; conditions: cited from earlier work
# Excerpt: In this study, we utilized Pro10-1D, a 10-meric peptide developed previously by adding a D-arginine residue at the N terminal of Pro9-3D, an enantiomeric form of Pro9-3 [17].
# RBL-2H3 cells = assay: Cell viability (CCK-8), RBL-2H3; assay type: cell-based, rat; conditions: RBL-2H3, 4 h, CCK-8, absorbance 450 nm, up to highest experimental concentration
# Procedure: as §7, §8
# [10] = test system: inflammatory cell influx into bronchoalveolar lavage fluid; conditions: allergic asthma, intranasal application; cited from earlier work
# Excerpt: AMPs are small, naturally occurring antimicrobial peptides. In addition to their antimicrobial function, AMPs also play a role in regulating the host’s innate immune system. AMPs typically exert effects that inhibit the growth or induce the death of bacteria, fungi, and parasites. Unlike conventional antibiotics, most AMPs employ a distinct mode of action for their antibacterial activity, targeting the pathogen’s membrane. These unique mechanisms make AMPs promising candidates for the development of next-generation antibiotics. By August 2020, the antimicrobial peptide database c ...
# T1 sequence (P06241 whole entry): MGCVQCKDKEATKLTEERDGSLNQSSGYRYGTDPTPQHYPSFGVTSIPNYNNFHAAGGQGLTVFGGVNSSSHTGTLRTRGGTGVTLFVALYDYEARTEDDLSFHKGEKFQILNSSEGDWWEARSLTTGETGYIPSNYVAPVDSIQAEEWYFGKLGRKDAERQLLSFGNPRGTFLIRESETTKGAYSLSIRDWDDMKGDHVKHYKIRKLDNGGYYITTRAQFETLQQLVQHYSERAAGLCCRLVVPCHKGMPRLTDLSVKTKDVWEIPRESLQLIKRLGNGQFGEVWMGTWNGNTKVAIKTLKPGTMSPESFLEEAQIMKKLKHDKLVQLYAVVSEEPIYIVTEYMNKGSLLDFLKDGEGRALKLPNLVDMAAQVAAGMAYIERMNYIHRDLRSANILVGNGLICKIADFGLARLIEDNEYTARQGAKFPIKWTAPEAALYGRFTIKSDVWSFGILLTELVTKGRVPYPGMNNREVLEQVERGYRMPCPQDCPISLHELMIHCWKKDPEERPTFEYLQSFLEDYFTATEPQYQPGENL
# T2 sequence (P25911 whole entry): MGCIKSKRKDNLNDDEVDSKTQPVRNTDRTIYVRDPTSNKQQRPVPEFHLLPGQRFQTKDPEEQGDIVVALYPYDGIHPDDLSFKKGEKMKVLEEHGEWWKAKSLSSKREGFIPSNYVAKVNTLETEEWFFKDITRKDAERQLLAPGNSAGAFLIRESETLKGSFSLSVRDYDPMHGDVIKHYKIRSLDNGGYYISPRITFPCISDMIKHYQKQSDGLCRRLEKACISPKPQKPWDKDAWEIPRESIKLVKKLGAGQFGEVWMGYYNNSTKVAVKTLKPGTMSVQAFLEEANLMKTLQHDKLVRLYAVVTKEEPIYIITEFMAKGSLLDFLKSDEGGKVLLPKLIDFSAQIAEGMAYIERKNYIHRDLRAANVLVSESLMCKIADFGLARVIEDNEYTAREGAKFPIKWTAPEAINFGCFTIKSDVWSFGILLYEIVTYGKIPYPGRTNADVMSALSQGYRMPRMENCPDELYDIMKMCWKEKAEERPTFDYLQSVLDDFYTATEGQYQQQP
compound,measurement,setting,value
O=C(CO)NCCCOc1cccc(CN2CCCCC2)c1 [roxatidine],release of pro-inflammatory cytokines; phosphorylation of NF-κB and p38 MAPK,[1],attenuate the release of pro-inflammatory cytokines by inhibiting the phosphorylation of NF-κB and p38 MAPK
"CC(C)(C)n1nc(-c2ccc(Cl)cc2)c2c(N)ncnc21 [PP2, 4-amino-5-(4-chlorophenyl)-7-(dimethylethyl)pyrazolo[3,4-d]pyrimidine]",inhibition of thapsigargin-induced degranulation,BMMCs [2],much weaker inhibitory effect on thapsigargin or ionomycin-induced degranulation compared to its inhibitory effect on antigen-induced degranulation
same,inhibition of ionomycin-induced degranulation,BMMCs [3],much weaker inhibitory effect on thapsigargin or ionomycin-induced degranulation compared to its inhibitory effect on antigen-induced degranulation
LL-37,effect on pro-inflammatory activity of TLR ligands,TLR ligands,neutralizes the pro-inflammatory activity of TLR ligands
same,IL-10 expression,[4],induces IL-10 expression
papiliocin,effect on E. coli-induced sepsis,E. coli-induced sepsis,alleviates the impact of E. coli-induced sepsis
same,inhibition of TLR4-NFκB signaling pathway,[5],inhibiting the TLR4-NFκB signaling pathway
CC[C@@H](C)[C@@H](NC(=O)[C@@H](C)NC(=O)[C@@H](CC(C)C)NC(=O)[C@@H](Cc1c[nH]c2ccccc12)NC(=O)[C@@H](CC(C)C)NC(=O)[C@@H](CCCNC(=N)N)NC(=O)[C@H](N)CCCNC(=N)N)C(=O)N[C@H](Cc1c[nH]c2ccccc12)C(=O)N[C@H](CCCNC(=N)N)C(=O)N[C@H](CCCNC(=N)N)C(N)=O [Pro10-1D] (H-[dR][dR][dL][dW][dL][dA][dI][dW][dR][dR]-NH2),IC50,[6],~2.7 µM
same,IC50,Fyn,~22.6 µM
same,IC50,Lyn,~1.5 µM
same,cellular toxicity / cell viability,BMMCs [7],"did not exhibit any signs of cellular toxicity, even at the highest experimental concentration"
same,IC50,[8],~11.6 µM
same,toxicity to RAW264.7 cells,[9],non-toxic
same,cellular toxicity / cell viability,RBL-2H3 cells,"did not exhibit any signs of cellular toxicity, even at the highest experimental concentration"
"hBD2: human β-defensin-2 (GIGDPVTCLKSGAICHPVFCPRRYKQIGTCGLPGTKCCKKP; UniProt O15263 24-64, looked up)",inflammatory cell influx into bronchoalveolar lavage fluid,[10],reduce inflammatory cell influx into bronchoalveolar lavage fluid

# From article PMC11594534, “Antimicrobial Peptide Pro10-1D Exhibits Anti-Allergic Activity: A Promising Therapeutic Candidate” (International Journal of Molecular Sciences, 2024)
